Assay results: the NIST ThermoML archive (doi:10.1016/j.tca.2006.10.012)
Numbers after ± are expanded uncertainties.

Details: 300 K; 101.33 kPa; Crystal; Coaxial cylinder method

thermal conductivity: 15 ± 3 W/m/K
SMILES: [BH3-][NH3+] [ammonia borane]
